The text below walks through data of ChEMBL document CHEMBL1127105, “Adenosine-2-monophosphate derivatives: Structural requirements as substrates for inositol monophosphatase” (Bioorg Med Chem Lett, 1993).

Some results are limits rather than exact numbers.

The target of test [1] is T1, Inositol monophosphatase 1 (Bos taurus) (UniProt P20456).
T1 sequence (whole entry): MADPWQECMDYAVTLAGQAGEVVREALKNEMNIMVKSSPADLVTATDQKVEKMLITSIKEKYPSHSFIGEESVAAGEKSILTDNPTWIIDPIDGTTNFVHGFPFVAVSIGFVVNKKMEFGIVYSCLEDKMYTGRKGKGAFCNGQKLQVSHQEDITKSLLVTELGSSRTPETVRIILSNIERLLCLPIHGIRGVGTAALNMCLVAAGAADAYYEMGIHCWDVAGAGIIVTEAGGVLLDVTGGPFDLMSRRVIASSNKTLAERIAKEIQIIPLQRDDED
The test is described as follows: Activity against the bovine inositol monophosphatase was determined by rate of release of inorganic phosphate at 1 mM substrate concentration, 1 mM of inositol-1-phosphate (1).

The target of test [2] is T2, Inositol monophosphatase 1 (Bos taurus, UniProt P20456).
T2 sequence (P20456 whole entry): T1 sequence (whole entry)
Kind of test: Tested for the inhibitory activity against bovine inositol monophosphatase by measuring concentration inhibiting the production of [14C]inositol from racemic inositol monophosphate (1) containing [14C]-1.

Take `O=P(O)(O)O[C@H]1CO[C@H](CO)[C@H]1O`: the Activity in test [1] was found to be 0.65. Further, the midpoint of inhibition in test [2], the IC50, lay at 2900 µM.
On to `O=P(O)(O)[C@H]1CC[C@H](O)C[C@H]1O`, for which, in test [2], half-maximal inhibition (IC50) required 7 µM.
In test [1], `O=P(O)(O)O[C@H]1CC[C@H](CO)[C@H]1O` returned an Activity of less than 0.05. Further, in test [2], the IC50 came out at 2100 µM.
On the same counts, the results for `Nc1ncnc2c1ncn2[C@@H]1O[C@H](CO)[C@@H](O)[C@H]1OP(=O)(O)O` are 0.48 and 1300 µM.
In the case of `O=P(O)(O)O[C@@H]1CO[C@@H](CO)[C@@H]1O`, the Activity in test [1] is 0.53. This compound also gave an IC50 in test [2] of 1800 µM.
On the same counts, the results for `O=P(O)(O)O[C@H]1CC[C@@H](CO)[C@H]1O` are less than 0.05 and 310 µM.
The compound `O=P(O)(O)O[C@H]1CCC[C@H]1O` came in with an IC50 in test [2] of 5000 µM.
As for `O=P(O)(O)O[C@H]1COC[C@H]1O`, in test [1], the Activity was found to be 0.53. This compound also returned an IC50 in test [2] of 3600 µM.
